Laboratory results: patent publication US20170266166A1, “Compositions and Methods to Inhibit Estrogen Receptor Beta for the Treatment of Renal Cell Carcinoma” (University of Rochester, priority 2014, published 2017)

Key:
786-O cells [1] = experiment: transwell RCC cell migration assay; type: cell-based, human; settings: for cell migration: 10 nM
786-O cells [2] = experiment: RCC cell growth, MTT assay; type: cell-based, human; settings: 10 nM, 786-O (high endogenous ERβ), MTT and colony forming assays
Experimental: (§1) FIG. 2, comprising FIGS. 2A-2F, depicts the results of experiments comparing ERβ expression in RCC cell lines and estrogen/ERβ effects on RCC cell growth. […] Expression of ERα was not detected in tested RCC cells. ERβ has the highest expression level in 786-O and lowest in A498. Breast cancer cell MCF-7 was used as a positive control. […] The growth rate of 786-O cells (with high endogenous ERβ) is increased in the presence of 17β-estradiol (10 nM) as compared with the control Etoh). […] FIGS. 2D-2E show changes in ERβ expression levels can affect the RCC cell growth. A lentivirus system was used to knock-down ERβ in RCC 786-O cells (by lenti-ERβ-shRNA), or to increase ERβ in A498 cells (by lenti-ERβ cDNA). Cell growth rates were determined by MTT assay.
(§2) RCC cells were seeded in 24-well plates (5000 cells/200 μl medium per well) and cultured for 0, 2, 4 and 6 days. Cells were harvested and cell number was calculated using MTT agent.
(§3) To examine the ERβ roles on RCC cell growth, the lentiviral ERβ cDNA and shRNA were used to change the expression of ERβ in 2 RCC cell lines, A498 (low endogenous ERβ) and 786-O (high endogenous ERβ), respectively. 10 nM […] estradiol (E2) was used to activate ERβ and examine the growth changes using MTT assay and colony forming assays. […] Supportively, knocking-down ERβ by ERβ-siRNA in RCC 786-O cells suppressed cell growth, sh-Luciferase as control (FIG. 2D). […]

A498 cells [3] = experiment: RCC cell growth, MTT assay; type: cell-based, human; settings: 10 nM, A498 (little ERβ)
Experimental: as §1, §2, §3

A498 cells [4] = experiment: transwell RCC cell migration assay; type: cell-based, human
786-O tumors = experiment: anti-estrogen treatment of mice carrying 786-O RCC tumors (IVIS imaging, tumor weight, metastasis); type: in vivo; settings: for mice that developed distal metastasis: ip injection every other day, after 4 weeks of treatments, 3 of the 6 DMSO treated mice developed metastasis; for RCC tumor growth and metastasis (IVIS imaging, tumor weights): mouse RCC model, result in words
Description: Results of IVIS imaging, tumor size, and tumor weights are shown and compared.
The Fe-NTA transformed human renal carcinoma cell lines 7860.sh-ERβ/7860.sh-Luc and A498 hERβ/Vec were directly injected into the renal capsule of nude mice. After anesthesia, the back skin was lifted with a pair of blunt forceps and cut along the midline with a pair of scissors creating an incision approximately an inch in length; the dermis was separated from the underlying body wall on both sides of the incision for bilateral grafting or on one side only (blunt dissection). The animal was placed on its side, and the location of the kidney identified by viewing it through the body wall. A small incision ([…]) was made in the body wall just slightly longer than the long axis of the kidney. The exteriorized kidney was allowed to rest on the body wall. We used a syringe to inject the cells at the cell numbers of 1×10^6, both with matrigel (1:1) under the renal capsule.
ERβ antagonists, PHTPP and ICI, inhibit RCC cell growth and cell invasion Knockdown of ERβ reduced RCC cells growth and Invasion. It was then investigated whether PHTPP (ERβ selective antagonist) and ICI 182,780 (ICI, anti-estrogen) have therapeutic effects to reduce RCC tumor growth and metastasis in vivo. […] Also, both anti-estrogens have been used to treat mouse breast cancer models. The same doses of PHTPP and ICI were applied in mice carrying 786-O tumors DMSO (mock control), PHTPP and ICI were administrated via intraperitoneal (ip) injection every other day. IVIS imaging was applied to monitor tumor growth and distal metastasis. After 4 weeks of treatments, mice were sacrificed for tumor analysis. […] All the mice had developed RCC by the time they were sacrificed. […] In addition to PHTPP and ICI, tamoxifen was also tested on mouse RCC growth.

ERβ = ERβ (Homo sapiens, UniProt Q92731); settings: 10 μM, previous reports; cited from earlier work
pSMAD3 = experiment: Western blot after TGFβR-1 inhibitor treatment; type: cell-based, human; settings: after treatment of TGFβR-1 inhibitor, FIG. 5D
Experimental: FIG. 5E illustrates the experimental setting for treatment of RCC with TGFβR-1 inhibitor and migration. RCC cells were cultured for 48 hr and then treated with 10 μM TGFβR-1 inhibitor for 6 hr. RCC cells were then trypsinized and seeded in the upper transwell (5×10^4/well) for 24 hr to determine the migration rate. […] Quantification of migrated cells was shown on the right panel.
The expressions of ERs were determined by the Western blot according to the previous study (Hsu et al., Carcinogenesis, 2014, 35:651-61). Rabbit anti-ERβ polyclonal antibody (GTX 110607 GeneTex Corporation), mouse anti-GAPDH monoclonal antibody (Santa Cruz Biotechnology), rabbit anti-TGFB1 polyclonal antibody (Abcam Biotechnology), and mouse anti-SMAD3 monoclonal antibody (Abcam Biotechnology) were all used and all at 1:1,000 dilution in blocking buffer. The immunopositive bands were visualized with an ECL chemiluminescent detection system (Thermo Scientific, Rockford, Ill.), and the images were transferred to the Bio-rad imaging system. The Western analysis was scored positive if the band of interest was present at the expected molecular weight appropriate for each marker protein. All analyses were done in duplicate.
(§4) To further validate the ERβ→TGFβ1→pSMAD3 pathway, an interruption approach was applied by using TGFβR-1 inhibitors (10 μM) for the cell invasion assay in both 786-O and A498 cells (FIG. 5D).

786-O cells [5] = experiment: transwell matrigel RCC cell invasion assay; type: cell-based, human; settings: 10 μM
Experimental: (§5) The migration or invasion capability of RCC cells was determined using the transwell assay. In brief, 1×105 (invasion)/2-5×104 (migration) cells were harvested and seeded with serum-free media into the upper chamber with or without coated Matrigel with (BD Corning). The migrated or invaded cells were fixed by 4% paraformaldehyde and stained with 1% toluidine blue. Cell numbers were counted in five randomly chosen microscopic fields (100×) per membrane. When necessary, cells were treated with 10 μM of TGFβR-1 inhibitor (SB525334 Selleckchem) for 48 hr.
as §4

A498 cells [6] = experiment: transwell matrigel RCC cell invasion assay; type: cell-based, human; settings: 10 μM
Experimental: as §5, §4

advanced RCC = settings: 1990's clinical trials; cited from earlier work
[7] = mice carrying 786-O tumors, ip every other day, 4 weeks

ERβ, sequence (Q92731 whole entry): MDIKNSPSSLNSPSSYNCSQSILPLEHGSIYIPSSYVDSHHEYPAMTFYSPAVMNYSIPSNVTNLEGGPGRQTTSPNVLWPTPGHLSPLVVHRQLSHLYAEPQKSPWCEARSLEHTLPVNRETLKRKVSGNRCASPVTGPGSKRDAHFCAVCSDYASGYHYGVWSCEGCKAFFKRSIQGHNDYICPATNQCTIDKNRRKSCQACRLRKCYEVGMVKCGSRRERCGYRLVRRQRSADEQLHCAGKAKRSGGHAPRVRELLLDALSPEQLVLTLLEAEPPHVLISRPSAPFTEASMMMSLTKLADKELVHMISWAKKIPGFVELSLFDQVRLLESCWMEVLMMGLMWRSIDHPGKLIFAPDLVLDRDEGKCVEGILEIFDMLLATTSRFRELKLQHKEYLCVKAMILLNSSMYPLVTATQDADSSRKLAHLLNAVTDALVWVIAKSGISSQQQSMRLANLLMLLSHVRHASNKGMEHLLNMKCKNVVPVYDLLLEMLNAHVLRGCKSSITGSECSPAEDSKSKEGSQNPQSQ

C[C@]12CC[C@@H]3c4ccc(O)cc4CC[C@H]3[C@@H]1CC[C@@H]2O [E2, 17β-estradiol]
cell migration (786-O cells [1]; 786-O sh-Luc control cells): could enhance | cell migration (786-O cells [1]; ERβ knockdown 786-O cells (786-O-shERβ)): little effect | cell growth (786-O cells [2]): significantly enhanced the cell growth | cell growth (A498 cells [3]): little E2 stimulating effect | cell migration (A498 cells [4]; 10 nM, A498-ERβ cells): further stimulated the migration

C[C@]12CC[C@@H]3c4ccc(O)cc4C[C@@H](CCCCCCCCC[S+]([O-])CCCC(F)(F)C(F)(F)F)[C@H]3[C@@H]1CC[C@@H]2O (stereo partly drawn) [ICI 182,780, 7α-[9-(4,4,5,5,5-pentafluoropentylsulfinyl)nonyl]estra-1,3,5(10)-triene-3,17β-diol]
body weights versus control (786-O tumors; [7]): higher body weights than control | mice that developed distal metastasis (786-O tumors; mice carrying 786-O tumors): around 17% | RCC tumor growth and metastasis (IVIS imaging, tumor weights) (786-O tumors; in vivo): inhibit the RCC tumor growth and metastasis | signs of toxicity or adverse treatment side effects (786-O tumors; mouse, in vivo, ip): without any signs of toxicity or adverse treatment side effects | estrogen induced ERβ transactivation on EREluciferase reporter activity (ERβ): effectively inhibit

Oc1ccc(-c2c(-c3ccccc3)nn3c(C(F)(F)F)cc(C(F)(F)F)nc23)cc1 [PHTPP]
body weights versus control (786-O tumors; [7]): higher body weights than control | signs of toxicity or adverse treatment side effects (786-O tumors; [7]): without any signs of toxicity or adverse treatment side effects | mice that developed distal metastasis (786-O tumors; mice carrying 786-O tumors): around 17% | RCC tumor growth and metastasis (IVIS imaging, tumor weights) (786-O tumors; in vivo): inhibit the RCC tumor growth and metastasis | estrogen induced ERβ transactivation on EREluciferase reporter activity (ERβ): effectively inhibit

Cc1cccc(-c2[nH]c(C(C)(C)C)nc2-c2ccc3nccnc3c2)n1 [TGFβR-1 inhibitor]
migration ability (786-O cells [1]; 10 μM for 48 hr, 786-O sh-Luc (higher ERβ)): dramatically attenuated | pSMAD3 level by Western blot (pSMAD3): reduced pSMAD3 | migration ability (A498 cells [4]; 10 μM for 48 hr, A498 ERβ (higher ERβ)): dramatically attenuated | ERβ-enhanced invasion (786-O cells [5]): suppression of ERβ-enhanced invasion | ERβ-enhanced invasion (A498 cells [6]): suppression of ERβ-enhanced invasion

CC/C(=C(\c1ccccc1)c1ccc(OCCN(C)C)cc1)c1ccccc1 [tamoxifen]
inhibition of tumor size compared to the control group (786-O tumors; RCC in vivo, FIG. 9): about 40% | efficacy to inhibit ERβ activity (786-O tumors; compared to ICI 182,780 and PHTPP, FIG. 9): ~40% | RCC tumor growth and metastasis (IVIS imaging, tumor weights) (786-O tumors; in vivo): less effective on inhibiting RCC tumor | therapeutic efficacy in advanced RCC (advanced RCC): no significant therapeutic efficacy
